Measured values: PMC9866460, “Antifungal Combination Eye Drops for Fungal Keratitis Treatment” (Pharmaceutics, 2022)
Values after ≈ are worked out from the molar mass of the structure shown.

What was measured:
[1] = Particle size of cyclodextrin/drug aggregates by TEM; type: physicochemical
Experimental: Samples were placed on copper grids and stained with 2% (w/v) phosphotungstic acid. Samples were dried and evaluated by TEM observation using an accelerating voltage of 200 kV.
Particle size was measured using Image-Pro Plus Image Analysis Software Version 6.0.0.260 (Media Cybernetics, Inc., Rockville, MD, USA).

[2] = physchem; type: physicochemical
Experimental: The solubility assay was based on the addition of an excess of the drug to different solutions with increasing concentrations of two different cyclodextrins, 2-hydroxypropyl-β-cyclodextrin (HPβCD) or 2-hydroxypropyl-ɣ-cyclodextrin (HPγCD). […] Afterwards, the resultant solutions were centrifugated (Eppendorf® Centrifuge 5804R) at 12,000 rpm for 30 min and 25 °C. […] Each measurement was performed in triplicate.

C[C@@H]1C/C=C/C=C/C=C/C=C/[C@H](O[C@@H]2O[C@H](C)[C@@H](O)[C@H](N)[C@@H]2O)C[C@@H]2O[C@](O)(C[C@@H](O)C[C@H]3O[C@@H]3/C=C/C(=O)O1)C[C@H](O)[C@H]2C(=O)O [Natamycin]
average particle size (TEM) ([1]; saturated solution of natamycin in 40% (w/v) HPβCD): 80.25 ± 35.81 nm
average particle size (TEM) ([1]; saturated solution of natamycin in 40% (w/v) HPβCD with 1% (w/v) voriconazole): 148.96 ± 32.89 nm
solubility at 7 days [2]: 35.3 ± 14 µg/mL (≈ 53 µM)
